According to PubChem BioAssay AID2305 (GlaxoSmithKline (GSK), 2010):
“And” between values parts separate entries of the source, which are not always exact repeats. Identical values can stand only once.

The molecules below were run on P. falciparum 3D7 growth, pLDH absorbance (assay: P. falciparum 3D7 growth inhibition, dose response, strain 3D7 (AID 2305)).

Row | SMILES | IC50
1 | COc1cccc2c(NCc3ccccc3)nc(NCCCN3CCCCC3C)nc12 (configuration not stated) | 910 nM
2 | Fc1ccc2c(NN=Cc3ccc(Cl)cc3)ccnc2c1 | 750 nM
3 | COc1ccc2ncc(F)c(CCN3C[C@H](CNCc4nc5c(cc4Cl)OCC(=O)N5)[C@H](O)C3)c2n1 | 950 nM and 1280 nM and 830 nM
4 | Oc1ccc(CCNc2nc(NCc3cccc(OCc4cccc(F)c4)c3)nc(N3CCNCC3)n2)cc1 | 1340 nM
5 | c1cc(CN2CCCCC2)cc(OCCCNc2ccnc3ccccc23)c1 | 430 nM
6 | O=S(=O)(NC1CCN(c2ccnc3cc(Cl)ccc23)C1)c1cccs1 (configuration not stated) | 700 nM
7 | Oc1cc(Nc2ccnc3cc(-c4ccc(CN5CCCCC5)o4)ccc23)c(Cl)cc1F | 120 nM
8 | c1cc(-c2ccc(CN3CCCCC3)cc2)cc(-c2nc3ccccc3[nH]2)c1 | 580 nM
9 | Cc1csc(NC2=NCCN2)n1 | 470 nM
10 | CCc1cc2c(=O)c(-c3nc(C)cs3)c(N)oc2c(CN2CCCCC2)c1O | 660 nM
11 | CC1(C)N=C(N)NC(NOCc2ccc(Cl)c(Cl)c2)=N1 | 230 nM
12 | O=C(Nc1ccc(F)c([N+](=O)[O-])c1)Nc1cc(C(F)(F)F)ccc1Cl | 860 nM
13 | COc1ccc(CNC(=O)c2cnc3c(O)cccc3c2Nc2cccc(NC(=O)c3ccc(Cl)c([N+](=O)[O-])c3)c2)cc1 | 950 nM
14 | CC(C)[C@H](NC(=O)c1ccc(O)c(-c2ccc(Cl)c(Cl)c2)c1)C(=O)NCCN(C)C | 1050 nM
15 | COc1cc(Cc2cnc(N)nc2N)cc(OCCCS(=O)(=O)O)c1OC | 1170 nM
16 | N#Cc1ccc2c(c1)CCN(CCC1CCC(NC(=O)/C=C/c3c[nH]c4ccc(F)cc34)CC1)CC2 (configuration not stated) | 690 nM
17 | CC(C)Oc1ccc2c(c1)OC(c1ccccc1)(C(F)(F)F)NC2=O (configuration not stated) | 140 nM
18 | CCc1ccc(C2CCN(CCCCNC(=O)c3ccc(-c4ccc(Cl)cc4)cc3)CC2)c(O)c1 | 890 nM
19 | COc1cc2nc(N3CCN(c4cc(C)ccc4C)CC3)nc(N)c2cc1OC | 850 nM
20 | CCCCCC(C)(C)NC[C@@H](O)[C@H](Cc1ccccc1)NC(=O)c1cc(NCC)cc(N2CCCC2=O)c1 | 670 nM
21 | Cc1cccc2[nH]c(-c3ccc(-c4cccc(CNCCNC(=O)c5ccnn5C)c4)cc3)nc12 | 400 nM
22 | CCOc1cc(NC(=O)Nc2ccnc3ccccc23)cc(OC)c1 | 870 nM
23 | O=C(/C=C/c1ccc(Cl)cc1)NCCCCCN1CCC(c2c[nH]c3ccccc23)CC1 | 840 nM
24 | CCC(COCc1ccc(Cl)cc1)N(C)CCN(C)C(CC)COCc1ccc(Cl)cc1 (configuration not stated) | 1060 nM

Row | SMILES | IC50
25 | COC(=O)c1ccc(CC(C)NCC(O)c2ccc(Cl)c(Cl)c2)cc1 (configuration not stated) | 1000 nM
26 | CCc1ccc(NC(=O)c2cccc(CN3CCCN(CC4CCCCC4)CC3)c2)cc1 | 950 nM
27 | O=C(CC1SC(N2N=C(c3cccs3)CC2c2ccccc2)=NC1=O)Nc1ccc(Cl)cc1 (configuration not stated) | 1680 nM
28 | COc1cc2c(=O)c(Cc3ccc(Cl)cc3)c(C)[nH]c2cc1F | 1160 nM
29 | O=C(Cc1ccc(NC(=O)c2ccc(O)c(-c3ccc(Cl)c(Cl)c3)c2)cc1)NCCN1CCCCC1 | 840 nM
30 | CC(=O)Nc1ccc(C(=O)Nc2ccc(-c3csc(-c4nc5ccccc5[nH]4)c3)cc2)cn1 | 590 nM
31 | COc1ccc(N2CCN(CCCCNC(=O)c3ccc(/C=C/c4ccc(Cl)c(Cl)c4)cc3)CC2)c(OC)c1 | 710 nM
32 | Cc1ccc(NC(=O)N2CCC(n3c(-c4ccccc4)nc4cccnc43)CC2)cc1F | 530 nM
33 | O=C(CCc1cnc[nH]1)Nc1cccc(-c2ccc(-c3nc4ccccc4[nH]3)s2)c1 | 760 nM
34 | Cc1ccc(-n2nc(C)c3c2NC(=O)CSC3c2ccsc2)cc1 (configuration not stated) | 1010 nM
35 | Cc1ccc(O)cc1Nc1ccnc2ccc(C(C)(C)C)cc12 | 1250 nM
36 | CCCCCN1CCN(Cc2cccc(NC(=O)c3ccc(Cl)c(Cl)c3)c2)CC1 | 860 nM
37 | CCCCCc1ccc(N2C(N)=NC(N)=NC2(C)C)cc1 | 130 nM
38 | O=C(Nc1ccc(Cl)c(Cl)c1)N[C@H]1CCN(CCCCCNC(=O)[C@@H]2C[C@H]2c2ccc(Cl)c(Cl)c2)C1 | 1030 nM
39 | COc1cc2nc(N3CCC(NC(=O)c4cccc(N(C)C)c4)CC3)nc(N)c2cc1OC | 610 nM
40 | O=C(Nc1ccc2c(c1)CCNCC2)Nc1ccc2ccccc2c1 | 620 nM
41 | O=C(/C=C/c1ccccc1F)NC1CCC(CCN2CCc3ccc(-c4cccnc4)cc3CC2)CC1 (configuration not stated) | 900 nM
42 | COC(=O)c1cccc(CNCc2cccc(-c3ccc(-c4nc5ccc(C(F)(F)F)cc5[nH]4)cc3)c2)c1 | 260 nM
43 | COc1ccc(CNCc2cccc(-c3ccc(-c4nc5c(C)cccc5[nH]4)cc3)c2)cc1 | 240 nM
44 | CCCOc1ccc(C(F)(F)F)cc1NC(=O)c1nc2nc(C)cc(C)n2n1 | 250 nM
45 | O=C(CSc1nc2ccccc2c(=O)n1C1CC1)Nc1cc(C(F)(F)F)ccc1Cl | 110 nM
46 | COC(=O)c1cc(OC)c(OC)cc1NC(=O)NC12CC3CC(CC(C3)C1)C2 | 880 nM
47 | CN(C)c1ccc(CN2CCC(NC(=O)c3ccc(-c4cccc(Cl)c4)s3)CC2)cc1 | 920 nM
48 | Cc1cc(F)ccc1Oc1nc(Nc2ccc(N3CCOCC3)c(F)c2)nc2c1S(=O)(=O)CCC2 | 460 nM

Row | SMILES | IC50
49 | C=CCOc1cccc2c1CCN(CCN1CCC(NC(=O)c3ccc(-c4ccc(Cl)cc4)cc3)CC1)C2 | 670 nM
50 | Cc1ccc(CNC(=O)[C@H](CC(C)C)Nc2cc(C)nc(NCc3ccccc3C)n2)cc1 | 950 nM
51 | O=C(/C=C/c1ccccc1Cl)NC1CCC(CN2CCC(c3c[nH]c4ccncc34)CC2)CC1 (configuration not stated) | 330 nM
52 | OC(CNCc1cccc(Oc2ccc(Cl)cc2)c1)c1cccc(C(F)(F)F)c1 (configuration not stated) | 970 nM
53 | Cc1cc2c(cc1C(F)(F)F)N(C(=O)Nc1cccc(C(=O)NC3CCN(Cc4ccccc4)CC3)c1)CC2 | 910 nM
54 | CCOc1cc(C2C(C(=O)OC(C)C)=C(C)NC3=C2C(=O)CC(c2ccc(Cl)cc2)C3)ccc1OC(C)=O (configuration not stated) | 930 nM
55 | Cc1[nH]c2ccc(O)cc2c1C1CCN(CC2CCC(NC(=O)/C=C/c3c(Cl)cccc3Cl)CC2)CC1 (configuration not stated) | 820 nM
56 | Cc1sc(C)c(CNCCCNc2cc(=O)c3ccccc3[nH]2)c1Br | 880 nM
57 | COc1ccc(C2CC(c3ccccc3)=NN2C(=O)c2ccc(Br)o2)cc1 (configuration not stated) | 320 nM
58 | O=C1c2ccccc2CN1CCCN1CCC(Oc2ccc(F)cc2)CC1 | 1210 nM
59 | Cc1ccccc1C1CCN(C2CCC(NC(=O)c3csc(-c4cccc(Cl)c4)n3)CC2)CC1 (configuration not stated) | 1150 nM
60 | COc1ccc(-c2ccnc(-c3cccc(-c4ccccn4)n3)c2)cc1 | 820 nM
61 | CCCCCc1cc(O)c2c(c1)OC(C)(C)CC2C1=CCN(Cc2cnc3ccccc3c2)CC1 (configuration not stated) | 280 nM
62 | CC(C)(C)SCC(O)Cn1c2ccc(Br)cc2c2cc(Br)ccc21 (configuration not stated) | 1000 nM
63 | Cc1nc(/N=C(\N)NC(=O)NC2CCCCC2)nc2ccccc12 | 790 nM
64 | COc1cc2nc(N3CCC(CNC(=O)c4cc5ccccc5s4)CC3)nc(N)c2cc1OC | 290 nM
65 | CN1CCN(c2cc3c(cc2Br)CCN3C(=O)Nc2ccc(-c3cnc4ccccc4c3)cc2)CC1 | 580 nM
66 | Cc1onc(-c2c(F)cccc2Cl)c1C(=O)Nc1ccccc1I | 950 nM
67 | NC(N)=NC(=O)Nc1cc(Cl)c(F)c(Cl)c1 | 640 nM
68 | CC(C)Nc1cc(C(=O)N[C@@H](Cc2ccccc2)[C@H](O)CNC2CCCCC2)cc(N2CCCCS2(=O)=O)c1 | 100 nM
69 | COc1cc2c(cc1S(=O)(=O)c1ccc(NC(=O)c3cc4ccccc4s3)cc1)CCN(C)CC2 | 840 nM
70 | COc1ccc(CCN(C)CCCN2CCC(NC(=O)c3cccc4c(=O)c5ccccc5sc34)CC2)cc1OC | 790 nM
71 | CCOc1ccc(C(=O)Nc2cc3c(c(C(F)(F)F)c2)CCNC3)cc1Cl | 1060 nM
72 | O=C(Cc1ccc(NC(=O)c2ccc(O)c(-c3cccc([N+](=O)[O-])c3)c2)cc1)NCCN1CCCCC1 | 900 nM
